The values below come from ChEMBL document CHEMBL5634137, “2,4-Diacetylphloroglucinol (DAPG) derivatives rapidly eradicate methicillin-resistant staphylococcus aureus without resistance development by disrupting membrane” (Eur J Med Chem, 2023).

Values after ≈ are worked out from the molar mass of the structure shown. Active and inactive are the calls of the source.

In general, MIC refers to the smallest concentration in the dilution series that meets the test's criterion for growth inhibition. A word on the MBC: it is the smallest concentration meeting the test's criterion for killing.

One series concerns Pseudomonas aeruginosa. The series is described as follows: Antibacterial activity against Pseudomonas aeruginosa […] assessed as inhibition of bacterial growth incubated for 24 hrs by broth dilution method. The format is functional. In general terms: Dilution methods test growth across graded concentrations, often in twofold steps.
Series [1] deals with Staphylococcus aureus. Put plainly: Antibacterial activity against Methicillin-resistant Staphylococcus aureus USA300 assessed as inhibition of bacterial growth incubated for 24 hrs by broth dilution method. Type of series: functional.
Series [2] has as its system Staphylococcus aureus. Put plainly: Antibacterial activity against methicillin-resistant Staphylococcus aureus ATCC 4330 assessed as inhibition of bacterial growth incubated for 24 hrs by broth dilution method. Type of series: functional.
The subject of series [3] is Staphylococcus aureus. The series is described as follows: Antibacterial activity against methicillin-resistant Staphylococcus aureus ATCC 3392 assessed as inhibition of bacterial growth incubated for 24 hrs by broth dilution method. The format is functional.
The test system of the next series is Klebsiella pneumoniae. The series is described as follows: Antibacterial activity against Klebsiella pneumoniae […] assessed as inhibition of bacterial growth incubated for 24 hrs by broth dilution method. Type of series: functional.
Series [4] in a line: Cytotoxicity against mouse RAW264.7 cells assessed as survival rate incubated for 24 hrs by MTT assay. The format is toxicity, cell-based. Set-up: concentration or dose not given beside the values. Conditions: read-out: Survival. (In general: Tetrazolium dyes change colour on reduction, which living cells bring about.)
For series [5], the system named is Staphylococcus aureus. Put plainly: Selectivity index, ratio of MBC for bactericidal against methicillin-resistant Staphylococcus aureus ATCC 3392 to MIC for antibacterial activity against methicillin-resistant Staphylococcus aureus ATCC 3392. The format is functional.
For series [6], the system named is Staphylococcus aureus. Put plainly: Bactericidal activity against methicillin-resistant Staphylococcus aureus ATCC 3392 assessed as inhibition of bacterial growth incubated for 24 hrs by broth dilution method. Type of series: functional.
Series [7] relates to Staphylococcus aureus. Put plainly: Bactericidal against methicillin-resistant Staphylococcus aureus ATCC 4330 assessed as inhibition of bacterial growth incubated for 24 hrs by broth dilution method. Type of series: functional.
Series [8] has as its system Staphylococcus aureus. Put plainly: Selectivity index, ratio of MBC for bactericidal against methicillin-resistant Staphylococcus aureus ATCC 4330 to MIC for antibacterial activity against methicillin-resistant Staphylococcus aureus ATCC 4330. Type of series: functional.
Series [9] in a line: Cytotoxicity against human L02 cells assessed as survival rate incubated for 24 hrs by MTT assay. The format is toxicity, cell-based. The arrangement: concentration or dose not given beside the values. Conditions: read-out: Survival.
The next series concerns Escherichia coli. Put plainly: Antibacterial activity against Escherichia coli ATCC 11775 assessed as inhibition of bacterial growth incubated for 24 hrs by broth dilution method. The format is functional.
Series [10] concerns Staphylococcus aureus. The series is described as follows: Antibacterial activity against Methicillin-resistant Staphylococcus aureus USA300 infected in mouse skin infection model assessed as reduction in number of bacteria at 10 mg/kg, sc administered every 12 hrs for 3 days. The format is functional. Conditions: time 3.0 day.

In the case of `CCCCC(=O)c1c(O)cc(O)c(C(=O)C(C)CC)c1O` (stereo unspecified), the MIC in the series with Pseudomonas aeruginosa is more than 64 µg/mL; with Staphylococcus aureus [1], 1 µg/mL (≈ 3.4 µM); in the series on Staphylococcus aureus [2] it was 1 µg/mL (≈ 3.4 µM); in the series on Staphylococcus aureus [3], 1 µg/mL (≈ 3.4 µM); in the series on Klebsiella pneumoniae, more than 64 µg/mL; in the series on Escherichia coli, more than 64 µg/mL. For the same molecule, the values for the viability at 24 h in series [4] and in series [9] were 76% and 75%, respectively. Also, the entries for the “Selectivity Index” value in the series with Staphylococcus aureus [5] and in the series on Staphylococcus aureus [8] were 8 and 4, respectively. Also, the results for the MBC with Staphylococcus aureus [6] and with Staphylococcus aureus [7] were 8 µg/mL (≈ 27.2 µM) and 4 µg/mL (≈ 13.6 µM), respectively.

On to `Cc1onc(-c2ccccc2)c1C(=O)N[C@@H]1C(=O)N2[C@@H]1SC(C)(C)[C@@H]2C(=O)O` [OXACILLIN], for which the MIC with Staphylococcus aureus [1] is 16 µg/mL (≈ 39.9 µM). In addition, in the series with Staphylococcus aureus [10], the result was inactive.

For the molecule `CCCCC(=O)c1c(O)cc(O)c(C(=O)CCC(C)C)c1O`, the MIC in the series with Pseudomonas aeruginosa was more than 64 µg/mL; in the series on Staphylococcus aureus [1], 0.5 µg/mL (≈ 1.62 µM); in the series on Staphylococcus aureus [2], 0.5 µg/mL (≈ 1.62 µM); in the series on Staphylococcus aureus [3], 0.5 µg/mL (≈ 1.62 µM); with Klebsiella pneumoniae, more than 64 µg/mL; in the series with Escherichia coli, more than 64 µg/mL. Moreover, the viability at 24 h in [4] is 76%; in series [9], 75%. For the same molecule, the figures for the “Selectivity Index” value with Staphylococcus aureus [5] and in the series on Staphylococcus aureus [8] were 16 and 4, respectively. The results for the MBC in the series with Staphylococcus aureus [6] and in the series with Staphylococcus aureus [7] were 8 µg/mL (≈ 25.9 µM) and 2 µg/mL (≈ 6.49 µM), respectively.

On to `CN[C@H](CC(C)C)C(=O)N[C@H]1C(=O)N[C@@H](CC(N)=O)C(=O)N[C@H]2C(=O)N[C@H]3C(=O)N[C@H](C(=O)N[C@H](C(=O)O)c4cc(O)cc(O)c4-c4cc3ccc4O)[C@H](O)c3ccc(c(Cl)c3)Oc3cc2cc(c3O[C@@H]2O[C@H](CO)[C@@H](O)[C@H](O)[C@H]2O[C@H]2C[C@](C)(N)[C@H](O)[C@H](C)O2)Oc2ccc(cc2Cl)[C@H]1O` [VANCOMYCIN], for which the minimum inhibitory concentration (MIC) with Pseudomonas aeruginosa, in the series on Klebsiella pneumoniae and with Escherichia coli was more than 64 µg/mL throughout. Also, the result in the series with Staphylococcus aureus [10] was inactive.

Take `CCCCC(=O)c1c(O)cc(O)c(C(=O)C2CCCCC2)c1O`: the MIC in the series with Pseudomonas aeruginosa was more than 64 µg/mL; in the series with Staphylococcus aureus [1], 0.5 µg/mL (≈ 1.56 µM); with Staphylococcus aureus [2], 0.5 µg/mL (≈ 1.56 µM); in the series on Staphylococcus aureus [3] it was 0.5 µg/mL (≈ 1.56 µM); with Klebsiella pneumoniae, more than 64 µg/mL; in the series with Escherichia coli, more than 64 µg/mL. The viability at 24 h in [4] came out at 76%; in series [9] it was 75%. Besides, the “Selectivity Index” value with Staphylococcus aureus [5] is 8; in the series on Staphylococcus aureus [8] it was 2. Further, the minimal bactericidal concentration (MBC) with Staphylococcus aureus [6] turned out to be 4 µg/mL (≈ 12.5 µM); with Staphylococcus aureus [7] it was 1 µg/mL (≈ 3.12 µM).

Consider `O=C(c1c(O)cc(O)c(C(=O)C2CCCC2)c1O)C1CCCC1`, for which the MIC is more than 64 µg/mL in the series with Pseudomonas aeruginosa; 0.5 µg/mL (≈ 1.57 µM) in the series on Staphylococcus aureus [1]; 1 µg/mL (≈ 3.14 µM) in the series with Staphylococcus aureus [2]; 1 µg/mL (≈ 3.14 µM) in the series on Staphylococcus aureus [3]; more than 64 µg/mL with Klebsiella pneumoniae; 64 µg/mL (≈ 201 µM) in the series with Escherichia coli. For the same molecule, the viability at 24 h in [4] is 76%; in series [9], 75%. For the same molecule, the “Selectivity Index” value with Staphylococcus aureus [5] and with Staphylococcus aureus [8] was 4 throughout. The MBC with Staphylococcus aureus [6] and with Staphylococcus aureus [7] was 4 µg/mL (≈ 12.6 µM) each time.

`CCCCC(=O)c1c(O)cc(O)c(C(=O)C(C)C)c1O`: the MIC is more than 64 µg/mL with Pseudomonas aeruginosa; 1 µg/mL (≈ 3.57 µM) with Staphylococcus aureus [1]; 2 µg/mL (≈ 7.13 µM) with Staphylococcus aureus [2]; 2 µg/mL (≈ 7.13 µM) in the series with Staphylococcus aureus [3]; more than 64 µg/mL in the series with Klebsiella pneumoniae; more than 64 µg/mL in the series with Escherichia coli. The viability at 24 h came out at 76% in series [4] and 75% in [9]. Also, the “Selectivity Index” value in the series with Staphylococcus aureus [5] and in the series with Staphylococcus aureus [8] was 4 throughout. Also, the MBC with Staphylococcus aureus [6] and with Staphylococcus aureus [7] was 8 µg/mL (≈ 28.5 µM) throughout.
